Reference: patent US9840498B2, “Substituted quinazolin-4-one derivatives” (NOVARTIS AG, priority 2013, dated 2017)

Columns and labels:
[1] = target: human phosphoinositide-3 kinase (PI3K) alpha (Homo sapiens (Human), UniProt P42336); test: PI3K-mediated Akt 1/2 (S473) phosphorylation in Rat-1 cells overexpressing PI3K alpha; assay type: cell-based, rat cells expressing human PI3K alpha; conditions: cellular assay, p-AKT(Ser473), read-out: Cell PI3K alpha IC50
Procedure: (§1) 2.1 Phosphoinositide-3 kinase (PI3K)-Mediated Akt 1/2 (S473) Phosphorylation in Rat-1 Cells
(§2) Rat-1 cells stably overexpressing a myristoylated form of the catalytic subunit of human phosphoinositide-3 kinase (PI3K) alpha, beta or delta were plated in 384-well plates at a density of 7500 (PI3K alpha), 6200 (PI3K beta), or 4000 (PI3K delta) cells in 30 ul complete growth medium (Dulbecco's modified Eagle's medium (DMEM high glucose) supplemented with 10% (v/v) fetal bovine serum, 1% (v/v) MEM non essential amino acids, 10 mM HEPES, 2 mM L-glutamine, 10 μg/mL puromycin and 1% (v/v) Penicillin/Streptomycin) and were incubated at […]/5% CO2/95% humidity for 24 h. Compounds were diluted in 384-well compound plates (compound master plates), to obtain 8-point serial dilutions for 40 test compounds in 90% DMSO, as well as 4 reference compounds plus 16 high controls and 16 low (inhibited) controls. Predilution plates were prepared by dispensing pipetting 250 nl of compound solutions into 384-well polypropylen plates (daugther plates), using a Hummingwell nanoliter dispenser. Compounds were prediluted by the addition of 49.75 ul complete growth medium. 10 ul of prediluted compound solution were transferred to the cell plate using a 384-well pipettor, resulting in a final DMSO concentration of 0.11%. Cells were incubated for 1 h at […]/5% CO2/95% humidity. The supernatant was removed, the cells were lysed in 20 ul of lysis buffer for AlphaScreen® SureFire® detection.
(§3) For detection of p-AKT(Ser473), the SureFire® p-Akt 1/2 (Ser473) Assay Kit (PerkinElmer, U.S.A.) was used. 5 ul of cell lysate was transferred to 384-well low volume Proxiplates for detection using a 384-well pipettor. Addition of AlphaScreen® SureFire® reagents was done according to the manufacturer's protocol. First, 5 ul of reaction buffer plus activation buffer mix containing AlphaScreen® acceptor beads was added, the plate was sealed, and incubated on a plate shaker for 2 hours at room temperature. Second, 2 ul of dilution buffer containing AlphaScreen® donor beads was added, and the plate was incubated on plate shaker as above for a further 2 hours. The plate was read on an AlphaScreen® compatible plate reader, using standard AlphaScreen® settings. Alternatively, p-AKT(Ser473) was detected with the CisBio HTRF Assay Kit: As positive control, 0.9 mM of 1-(3-(trifluoromethyl)-4-(piperazin-1-yl)phenyl)-8-(6-methoxypyridin-3-yl)-3-methyl-1H-imidazo[4,5-c]quinolin-2(3H)-one maleic acid salt in 90% (v/v) DMSO was added to the compound master plate. For compound testing, the cells were seeded at a density of 4000 (Rat-1_PI3Kdelta), 8000 (Rat-1_PI3Kalpha), or 6500 (Rat-1_PI3Kbeta) cells in 30 ul complete growth medium into 384-well plates, with a plastic surface promoting the adhesion of cells and their growth (assay plates) and were grown at 37° C./5% CO2/90% humidity for 24 h. Some 10 ul of the compound predilutions from the daughter plate were then transferred to the cells. After treatment with compound for 1 h, medium was removed and cells were lysed by the addition of 20 ul lysis buffer supplemented with blocking buffer. Detection of p-AKT(Ser473) was performed with the HTRF pAKT (Ser473) assay kit according to the manufacturer's instructions using 16 ul of cell lysate in a total detection volume of 20 ul.

[2] = target: human phosphoinositide-3 kinase (PI3K) delta (Homo sapiens (Human), UniProt O00329); test: PI3K-mediated Akt 1/2 (S473) phosphorylation in Rat-1 cells overexpressing PI3K delta; assay type: cell-based; conditions: cellular assay, p-AKT(Ser473), read-out: Cell PI3K delta IC50
Procedure: as §1, §2, §3

Chain of human phosphoinositide-3 kinase (PI3K) alpha (P42336 whole entry): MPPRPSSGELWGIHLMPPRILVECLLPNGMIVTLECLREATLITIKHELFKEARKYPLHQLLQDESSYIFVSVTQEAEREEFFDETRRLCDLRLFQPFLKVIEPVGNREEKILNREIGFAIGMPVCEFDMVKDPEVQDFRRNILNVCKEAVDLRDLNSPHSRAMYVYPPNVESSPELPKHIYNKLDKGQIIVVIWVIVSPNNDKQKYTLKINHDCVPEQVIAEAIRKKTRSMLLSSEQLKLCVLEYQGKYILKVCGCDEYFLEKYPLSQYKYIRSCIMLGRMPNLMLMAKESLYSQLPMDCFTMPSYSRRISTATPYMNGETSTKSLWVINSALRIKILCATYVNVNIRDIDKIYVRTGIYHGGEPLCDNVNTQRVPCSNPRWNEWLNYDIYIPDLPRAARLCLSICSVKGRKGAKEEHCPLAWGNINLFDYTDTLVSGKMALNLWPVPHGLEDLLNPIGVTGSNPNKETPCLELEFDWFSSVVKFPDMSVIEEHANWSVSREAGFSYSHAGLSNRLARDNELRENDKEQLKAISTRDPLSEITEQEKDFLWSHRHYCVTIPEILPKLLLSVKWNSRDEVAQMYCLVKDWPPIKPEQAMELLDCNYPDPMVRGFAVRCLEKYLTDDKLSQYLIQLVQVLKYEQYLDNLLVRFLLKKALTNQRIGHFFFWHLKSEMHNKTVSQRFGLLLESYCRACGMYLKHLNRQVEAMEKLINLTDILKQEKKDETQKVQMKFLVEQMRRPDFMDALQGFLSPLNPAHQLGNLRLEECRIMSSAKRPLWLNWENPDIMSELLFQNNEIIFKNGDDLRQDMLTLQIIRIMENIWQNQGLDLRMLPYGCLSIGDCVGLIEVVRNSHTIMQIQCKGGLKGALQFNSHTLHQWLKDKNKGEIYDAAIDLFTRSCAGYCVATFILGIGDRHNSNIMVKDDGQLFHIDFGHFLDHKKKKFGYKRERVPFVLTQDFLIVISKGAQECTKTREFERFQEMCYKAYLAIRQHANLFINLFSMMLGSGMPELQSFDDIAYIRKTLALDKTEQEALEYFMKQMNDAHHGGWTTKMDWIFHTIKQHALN
Chain of human phosphoinositide-3 kinase (PI3K) alpha (Q63787 whole entry partner): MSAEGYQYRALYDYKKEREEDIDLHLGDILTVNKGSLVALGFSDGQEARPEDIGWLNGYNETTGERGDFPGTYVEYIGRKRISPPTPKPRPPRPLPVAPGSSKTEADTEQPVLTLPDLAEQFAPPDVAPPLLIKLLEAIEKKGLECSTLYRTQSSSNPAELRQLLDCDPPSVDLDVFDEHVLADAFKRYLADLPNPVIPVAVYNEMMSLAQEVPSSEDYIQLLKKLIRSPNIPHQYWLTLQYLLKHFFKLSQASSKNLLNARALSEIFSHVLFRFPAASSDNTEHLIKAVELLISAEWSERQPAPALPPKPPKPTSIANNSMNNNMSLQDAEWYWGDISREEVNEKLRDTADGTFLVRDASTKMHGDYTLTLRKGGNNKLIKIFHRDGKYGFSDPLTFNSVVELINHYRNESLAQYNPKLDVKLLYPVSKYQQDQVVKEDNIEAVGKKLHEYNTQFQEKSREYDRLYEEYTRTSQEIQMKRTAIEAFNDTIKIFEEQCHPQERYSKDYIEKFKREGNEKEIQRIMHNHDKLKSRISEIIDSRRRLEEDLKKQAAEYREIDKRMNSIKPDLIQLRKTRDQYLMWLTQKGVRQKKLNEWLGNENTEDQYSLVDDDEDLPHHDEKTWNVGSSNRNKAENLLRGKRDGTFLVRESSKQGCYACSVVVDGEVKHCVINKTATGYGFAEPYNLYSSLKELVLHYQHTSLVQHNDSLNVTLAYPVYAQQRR
Chain of human phosphoinositide-3 kinase (PI3K) delta (O00329 whole entry): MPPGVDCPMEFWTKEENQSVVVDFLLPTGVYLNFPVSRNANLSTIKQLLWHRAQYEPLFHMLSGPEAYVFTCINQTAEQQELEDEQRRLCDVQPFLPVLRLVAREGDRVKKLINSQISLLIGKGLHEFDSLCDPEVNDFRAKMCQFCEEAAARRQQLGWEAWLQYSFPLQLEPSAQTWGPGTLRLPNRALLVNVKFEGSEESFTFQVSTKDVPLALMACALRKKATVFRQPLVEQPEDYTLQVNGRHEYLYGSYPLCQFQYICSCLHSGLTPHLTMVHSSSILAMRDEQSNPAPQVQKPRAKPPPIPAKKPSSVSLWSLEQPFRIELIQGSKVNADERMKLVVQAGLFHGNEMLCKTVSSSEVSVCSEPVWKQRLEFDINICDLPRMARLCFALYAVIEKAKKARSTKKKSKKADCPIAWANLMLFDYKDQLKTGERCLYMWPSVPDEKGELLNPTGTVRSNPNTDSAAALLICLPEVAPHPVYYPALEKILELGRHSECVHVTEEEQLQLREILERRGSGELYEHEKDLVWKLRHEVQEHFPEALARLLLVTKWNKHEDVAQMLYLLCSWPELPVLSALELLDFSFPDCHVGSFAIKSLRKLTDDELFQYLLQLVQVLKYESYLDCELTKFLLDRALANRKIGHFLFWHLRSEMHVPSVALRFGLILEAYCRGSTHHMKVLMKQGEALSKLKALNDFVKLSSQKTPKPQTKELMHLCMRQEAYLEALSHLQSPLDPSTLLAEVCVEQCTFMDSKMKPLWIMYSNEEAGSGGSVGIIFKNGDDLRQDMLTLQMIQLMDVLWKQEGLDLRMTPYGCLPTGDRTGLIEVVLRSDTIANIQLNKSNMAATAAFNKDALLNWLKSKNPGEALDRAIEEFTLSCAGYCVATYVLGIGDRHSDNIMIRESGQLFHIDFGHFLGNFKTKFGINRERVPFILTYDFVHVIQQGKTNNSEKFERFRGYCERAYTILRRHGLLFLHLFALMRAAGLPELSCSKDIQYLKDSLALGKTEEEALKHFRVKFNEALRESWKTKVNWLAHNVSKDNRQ
Chain of human phosphoinositide-3 kinase (PI3K) delta (Q63787 whole entry partner): as the sequence (Q63787 whole entry partner) above

IC50 [1] | IC50 [2] | Structure (SMILES)
1100 nM | 12 nM | Cc1nc(N)nc(N2CCC[C@H]2c2nc3cccc(-c4cnn(C)c4)c3c(=O)n2-c2ccccc2)c1C#N [Example 13, (S)-2-Amino-4-methyl-6-(2-(5-(1-methyl-1H-pyrazol-4-yl)-4-oxo-3-phenyl-3,4-dihydroquinazolin-2-yl)pyrrolidin-1-yl)pyrimidine-5-carbonitrile]
2700 nM | 8 nM | Cc1nc(N)nc(N2C[C@@H](O)C[C@H]2c2nc3cccc(-c4cnn(C)c4)c3c(=O)n2-c2ccccc2)c1C#N [Example 16, 2-Amino-4-((2S,4S)-4-hydroxy-2-(5-(1-methyl-1H-pyrazol-4-yl)-4-oxo-3-phenyl-3,4-dihydroquinazolin-2-yl)pyrrolidin-1-yl)-6-methylpyrimidine-5-carbonitrile]
> 10000 nM | 7 nM | COc1ncc(-c2cccc3nc([C@@H]4C[C@H](O)CN4c4nc(N)nc(C)c4C#N)n(-c4ccccc4)c(=O)c23)cn1 [Example 22, 2-Amino-4-((2S,4S)-4-hydroxy-2-(5-(2-methoxypyrimidin-5-yl)-4-oxo-3-phenyl-3,4-dihydroquinazolin-2-yl)pyrrolidin-1-yl)-6-methylpyrimidine-5-carbonitrile]
5000 nM | < 3 nM | Cc1nc(N)nc(N2C[C@@H](O)C[C@H]2c2nc3cccc(-c4cccnc4)c3c(=O)n2-c2ccccc2)c1C#N [Example 24, 2-Amino-4-((2S,4S)-4-hydroxy-2-(4-oxo-3-phenyl-5-(pyridin-3-yl)-3,4-dihydroquinazolin-2-yl)pyrrolidin-1-yl)-6-methylpyrimidine-5-carbonitrile]
1900 nM | 4 nM | COc1cncc(-c2cccc3nc([C@@H]4C[C@H](O)CN4c4nc(N)nc(C)c4C#N)n(-c4ccccc4)c(=O)c23)c1 [Example 25, 2-Amino-4-((2S,4S)-4-hydroxy-2-(5-(5-methoxypyridin-3-yl)-4-oxo-3-phenyl-3,4-dihydroquinazolin-2-yl)pyrrolidin-1-yl)-6-methylpyrimidine-5-carbonitrile]
> 6500 nM | 7 nM | Cc1nc(N)nc(N2C[C@@H](O)C[C@H]2c2nc3cccc(-c4cncnc4)c3c(=O)n2-c2ccccc2)c1C#N [Example 26, 2-Amino-4-((2S,4S)-4-hydroxy-2-(4-oxo-3-phenyl-5-(pyrimidin-5-yl)-3,4-dihydroquinazolin-2-yl)pyrrolidin-1-yl)-6-methylpyrimidine-5-carbonitrile]
1300 nM | 6 nM | COc1ccc(-c2cccc3nc([C@@H]4C[C@H](O)CN4c4nc(N)nc(C)c4C#N)n(-c4ccccc4)c(=O)c23)cn1 [Example 27, 2-Amino-4-((2S,4S)-4-hydroxy-2-(5-(6-methoxypyridin-3-yl)-4-oxo-3-phenyl-3,4-dihydroquinazolin-2-yl)pyrrolidin-1-yl)-6-methylpyrimidine-5-carbonitrile]
> 10000 nM | 90 nM | Cc1nc(N)nc(N2C[C@@H](O)C[C@H]2c2nc3cccc(-c4cnn(CCO)c4)c3c(=O)n2-c2ccccc2)c1C#N [Example 28, 2-Amino-4-((2S,4S)-4-hydroxy-2-(5-(1-(2-hydroxyethyl)-1H-pyrazol-4-yl)-4-oxo-3-phenyl-3,4-dihydroquinazolin-2-yl)pyrrolidin-1-yl)-6-methylpyrimidine-5-carbonitrile]
2300 nM | < 10 nM | Cc1nc(N)nc(N2C[C@@H](F)C[C@H]2c2nc3cccc(-c4cnn(C)c4)c3c(=O)n2-c2ccccc2)c1C#N [Example 30, 2-Amino-4-((2S,4S)-4-fluoro-2-(5-(1-methyl-1H-pyrazol-4-yl)-4-oxo-3-phenyl-3,4-dihydroquinazolin-2-yl)pyrrolidin-1-yl)-6-methylpyrimidine-5-carbonitrile]

Further lines, the compound ahead of its results:

Structure (SMILES) | IC50 [1] | IC50 [2]
CO[C@H]1C[C@@H](c2nc3cccc(-c4cnn(C)c4)c3c(=O)n2-c2ccccc2)N(c2nc(N)nc3[nH]cnc23)C1 [Example 11, 2-((2S,4S)-1-(2-Amino-9H-purin-6-yl)-4-methoxypyrrolidin-2-yl)-5-(1-methyl-1H-pyrazol-4-yl)-3-phenylquinazolin-4(3H)-one] | > 10000 nM | 660 nM
COc1ncc(-c2cccc3nc([C@@H]4C[C@H](OC)CN4c4nc(N)nc(C)c4C#N)n(-c4ccccc4)c(=O)c23)cn1 [Example 12, 2-Amino-4-((2S,4S)-4-methoxy-2-(5-(2-methoxypyrimidin-5-yl)-4-oxo-3-phenyl-3,4-dihydroquinazolin-2-yl)pyrrolidin-1-yl)-6-methylpyrimidine-5-carbonitrile] | 5900 nM | 28 nM
Cc1ccccc1-n1c([C@@H]2CCCN2c2ncnc(N)c2C#N)nc2cccc(-c3cnn(C)c3)c2c1=O [Example 14, (S)-4-Amino-6-(2-(5-(1-methyl-1H-pyrazol-4-yl)-4-oxo-3-(otolyl)-3,4-dihydroquinazolin-2-yl)pyrrolidin-1-yl)pyrimidine-5-carbonitrile] | 3300 nM | 8 nM
Cn1cnc(-c2cccc3nc([C@@H]4CCCN4c4ncnc(N)c4C#N)n(-c4ccccc4)c(=O)c23)c1 [Example 15, (S)-4-Amino-6-(2-(5-(1-methyl-1H-imidazol-4-yl)-4-oxo-3-phenyl-3,4-dihydroquinazolin-2-yl)pyrrolidin-1-yl)pyrimidine-5-carbonitrile] | > 10000 nM | 5400 nM
Cc1nc(N)nc(N2CCC[C@H]2c2nc3cccc(-c4cncnc4)c3c(=O)n2-c2ccccc2)c1C#N [Example 17, (S)-2-Amino-4-methyl-6-(2-(4-oxo-3-phenyl-5-(pyrimidin-5-yl)-3,4-dihydroquinazolin-2-yl)pyrrolidin-1-yl)pyrimidine-5-carbonitrile] | 5800 nM | < 3 nM
COc1cncc(-c2cccc3nc([C@@H]4CCCN4c4nc(N)nc(C)c4C#N)n(-c4ccccc4)c(=O)c23)c1 [Example 18, (S)-2-Amino-4-(2-(5-(5-methoxypyridin-3-yl)-4-oxo-3-phenyl-3,4-dihydroquinazolin-2-yl)pyrrolidin-1-yl)-6-methylpyrimidine-5-carbonitrile] | 420 nM | < 3 nM
Cc1ncc(-c2cccc3nc([C@@H]4CCCN4c4nc(N)nc(C)c4C#N)n(-c4ccccc4)c(=O)c23)cn1 [Example 19, (S)-2-Amino-4-methyl-6-(2-(5-(2-methylpyrimidin-5-yl)-4-oxo-3-phenyl-3,4-dihydroquinazolin-2-yl)pyrrolidin-1-yl)pyrimidine-5-carbonitrile] | 5400 nM | < 3 nM
Cc1nc(N)nc(N2CCC[C@H]2c2nc3cccc(-c4cccnc4)c3c(=O)n2-c2ccccc2)c1C#N [Example 20, (S)-2-Amino-4-methyl-6-(2-(4-oxo-3-phenyl-5-(pyridin-3-yl)-3,4-dihydroquinazolin-2-yl)pyrrolidin-1-yl)pyrimidine-5-carbonitrile] | 1500 nM | < 3 nM
COc1ccc(-c2cccc3nc([C@@H]4CCCN4c4nc(N)nc(C)c4C#N)n(-c4ccccc4)c(=O)c23)cn1 [Example 21, (S)-2-Amino-4-(2-(5-(6-methoxypyridin-3-yl)-4-oxo-3-phenyl-3,4-dihydroquinazolin-2-yl)pyrrolidin-1-yl)-6-methylpyrimidine-5-carbonitrile] | 2500 nM | 13 nM
CCOc1ncc(-c2c(F)ccc3nc([C@@H]4C[C@H](O)CN4c4nc(N)nc(C)c4C#N)n(-c4ccccc4)c(=O)c23)cn1 [Example 29, 2-Amino-4-((2S,4S)-2-(5-(2-ethoxypyrimidin-5-yl)-6-fluoro-4-oxo-3-phenyl-3,4-dihydroquinazolin-2-yl)-4-hydroxypyrrolidin-1-yl)-6-methylpyrimidine-5-carbonitrile] | 2700 nM | 6 nM
